Measurements taken from US20090105562A1, “SYSTEM AND METHODS FOR SCREENING OR ANALYZING TARGETS” (TAIPEI VETERANS GENERAL HOSPITAL, priority 2007, published 2009).

Assays:
Assay type in all cases: cell-based, rat
[1] = tested on: NSCs isolated from the hippocampus of adult rats; test: MTT cell viability/survival of NSCs treated with IM; settings: 3 μM IM; Day 3, Day 5 and Day 7 cultures; p<0.05
Procedure: Adult Sprague-Dawley (SD) rats (8 weeks old, 250 g) were anesthetized with intraperitoneal phenobarbital (Sigma, USA), and the location of their brains was mapped. Then, the brain was surgically separated from the hippocampus region. In brief, tissues from the hippocampus of adult rats were dissociated and incubated in Hank's balanced salt solution (HBSS) containing collagenase (78 units/ml) and hyaluronidase (38 units/ml) for 10 minutes at 37° C. The tissues were then mechanically dissected and placed in a trypsin solution (1.33 mg/ml) at 37° C. for another 10 minutes. Dissociated cells were then centrifuged at 150 GG for 5 minutes. […] Viable cells were counted by trypan blue exclusion and plated as 5000 cells/200 μL per well in 96-well plates (Corning Inc, Acton, Mass., USA) with no substrate pretreatment. […] The amount of MTT fromazon product was determined using a microplate reader and the absorbance was measured at 560 nm (SpectraMax 250, Molecular Devices, Sunnyvale, Calif., USA). […] Each individual sample was analyzed in triplicate.

Bcl-2 = Bcl-2 protein expression in NSCs by western blot and immunocytochemistry
Procedure: After the treatment with IM, the cell lysates of the NSCs were collected and the concentration of protein was determined by using the Protein Assay kit (Bio-Rad, Hercules, Calif., USA). Cell extracts with sample buffer were boiled for 5 minutes and then separated by 10% SDS-PAGE gel. After electrophoresis, the gel was transferred onto a PVDF membrane for immunoblotting. The membrane was first blocked by incubation in non-fat milk at room temperature for 2 hours, then incubated with anti-Bcl-2 antibody (Upstate Biotechnology Inc, Waltham, Mass., USA), and anti-β actin (Chemicon International Inc, Temecula, Calif., USA) for 2 hours at room temperature, washed five times with Tris-Buffered Saline Tween-20 (TBST), and then incubated further at room temperature with horseradish peroxidase-conjugated secondary antibody for 2 hours. Then the membrane was washed six times with TBST and specific bands were made visible by chemiluminescence (Santa Cruz Biotechnology, Santa Cruz, Calif., USA).
(§1) Double-stranded, short interfering RNA (siRNA) of BDNF and Bcl-2 were chemically synthesized by Ambion Inc., Austin, Tex., USA). The sense and antisense sequences of BDNF were designed as follows: Sense: […]tt; Antisense: AGCTTAAAAAGAG CTGtt, starting from nucleotide 137 of the Bcl-2 sequence (accession number L14680). The sense and antisense sequences of Bcl-2 were designed as follows: Sense: GCGCUGGAUAUAACUUCUUtt; Antisense: AAGAAGUUAUAUC CAGCGCtt, starting from nucleotide 137 of the Bcl-2 sequence (accession number L14680). In this test, the siRNA control used was siRNA-Cy3 (QIAGEN; sense sequence: UUCUCCGAACGUGU CACGUdTdT-3′-Cy3 and the complement 5′-ACGUGACACGUUCGGAGAAdTdT-3′-Cy3) as an irrelevant control. The transfection of siRNA was performed using Lipofectamine 2000 (Invitrogen, Carlsbad, Calif., USA) according to the manufacturer's instructions. In brief, cells were harvested with 0.25% trypsin, 1 mM ethylenediaminetetraacetic acid (EDTA) in phosphate buffered saline (PBS) without Ca^2+ and Mg^2+, and plated in six-well plates at 10^5 per cm^2. Then 3.5 μl siRNA (100 μM solution) was mixed with 125 μl serum-free culture medium for 5 minutes at room temperature. During this incubation period, 5 μl of Lipofectamine 2000 was diluted in 125 μl serum-free culture medium. These two mixtures were combined, mixed gently, and incubated for 20 minutes at room temperature for complex formation. This 250 μl of siRNA-Lipofectamine mixture was then added into the cells in a final volume of 2.5 ml per well. The transfected cells were cultured and fed daily with fresh medium until they were assayed.
An avidin-biotin complex method was used for the immunohistochemical staining in the differentiated NSCs. Following washes with the 3% hydrogen peroxide, sodium azide and antigens were retrieved using a microwave. Each slide was then treated with antibodies for Bcl-2 (Upstate Biotechnology, Waltham, Mass., USA), Nestin (Chemicon, Temecula, Calif., USA), 4′, 6-diamidino-2-phenylindole (DAPI; Chemicon, Temecula, Calif., USA) and MAP2 (Chemicon, Temecula, Calif., USA). Immunoreactive signals were detected with a mixture of biotinylated rabbit anti-mouse IgG and Fluoresave (Calbiochem, La Jolla, Calif., USA) under confocal microscopy (Olympus, FV300). Each individual sample was analyzed in triplicate. Furthermore, apoptotic cells were identified by the TUNEL method (In Situ Cell Death Detection Kit, POD, Roche Boehringer Mannheim Corp., IN, USA) as described in Chiou et al., J. Immunol. 167, 4098-4103, 2001. Briefly, the cells with cover slips were washed with 1× phosphate buffered saline (PBS), fixed with 4% of paraformaldehyde for 10 minutes, permeabilized with 0.1% of triton X-100 for 5 mins, and incubated with the TUNEL reagent provided for 1 hour. Chromogenic development was then applied with 3-amino-9-ethyl-carbazole, and slides were counterstained with H & E stain. […]

LPS-treated NSCs [2] = test: Cell survival rate of LPS-treated NSCs
Procedure: (§2) IM was purchased from Sigma Chem. Co., St Louis, Mo., USA. NSCs were seeded on 24-well plates at a density of 2×10^4 cells/well in medium, followed by methyl thiazol tetrazolium assay (MTT assay) (Sigma-Aldrich Co., St Louis, Mo., USA) for cell viability. NSCs were incubated with 0.25 mg/ml MTT for 4 hours at 37° C. and the reaction was terminated by the addition of 100% isopropanol. The amount of MTT fromazon product was determined using a microplate reader and the absorbance was measured at 560 nm (SpectraMax 250, Molecular Devices, Sunnyvale, Calif., USA). NSCs were exposed to 0, 1, 2, 5, 10, 20, 30, 40, 50, 100, 200, and 300 μM of IM for 1, 3, 5, and 7 days, respectively. The activities of caspases 8 and 3 (Medical and Biological Laboratories Co., Ltd., Nagoya, Japan), and the concentration of IL-6, IL-1 and TNF-α (Pharmingen, San Diego, Calif., USA) were determined by ELISA kits and quantified by reading at 490 nm (MRX; Dynatech Laboratories, Chantilly, Va., USA). Each individual sample was analyzed in triplicate.
as §1, with “Then 3.5 μl siRNA (100 μM solution) was mixed with 125 μl serum-free culture medium for 5 minutes at room temperature. During this incubation period, 5 μl of Lipofectamine 2000 was diluted in 125 μl serum-free culture medium. These two mixtures were combined, mixed gently, and incubated for 20 minutes at room temperature for complex formation. This 250 μl of siRNA-Lipofectamine mixture was then added into the cells in a final volume of 2.5 ml per well. The transfected cells were cultured and fed daily with fresh medium until they were assayed.” left out

LPS-treated NSCs [3] = test: LPS-induced apoptotic activity in NSCs, caspase 8 and 3 ELISA
Procedure: as §2, §1

LPS-treated NSCs [4] = test: ELISA of IL-1β, IL-6 and TNF-α in LPS-treated NSCs
Procedure: as §2, §1

[5] = LPS (100 ng/ml) exposure, Day 7 IM-treated vs without IM, p<0.05
[6] = vs only LPS-treated NSCs, IM 3 μM, p<0.05
[7] = agent added to LPS-treated NSCs with IM, U0126 40 μM

With `CN(C)CCCN1c2ccccc2CCc2ccccc21` [IM, imipramine] the “cell survival (MTT assay)” value [1] was “significantly increased”, the “protein expression level of Bcl-2 in LPS-treated NSCs” value (Bcl-2; 3 μM IM vs 1, 2 μM IM-LPS-treated, only LPS-treated and control groups) was “significantly increased” and the “protein level of Bcl-2 (western blot)” value (Bcl-2; Day 3 IM-treated vs Day 3 non-IM-treated NSCs, p<0.05) was “higher”. For the same compound, the “protein expression of Bcl-2 (immunohistochemistry)” value (Bcl-2; Day 7 IM-treated NSCs vs NSCs without IM treatment) was “significantly increased”, the “expression level of Bcl-2 protein (western blot)” value (Bcl-2; Day 7 IM-treated vs Day 3 or Day 5 IM-treated NSCs, p<0.05) was “significantly increased” and the “Bcl-2 expression in NSCs” value (Bcl-2; treatment with either agent alone) was “activate”. For the same compound, the “cell survival rate in LPS-treated NSCs” value (LPS-treated NSCs [2]; vs only LPS-treated NSCs, LPS 100 ng/ml) was “significantly increases”, the “apoptotic activity of caspase 3” value (LPS-treated NSCs [3]; [5]) was “significantly decreased” and the “apoptotic activity of caspase 8” value (LPS-treated NSCs [3]; [5]) was “significantly decreased”. The “IL-1β production in LPS-treated NSCs” value (LPS-treated NSCs [4]; [6]) was “effectively reduces”, the “IL-6 production in LPS-treated NSCs” value (LPS-treated NSCs [4]; [6]) was “effectively reduces” and the “TNF-α production in LPS-treated NSCs” value (LPS-treated NSCs [4]; [6]) was “effectively reduces”.
`N#CC(=C(/N)Sc1ccccc1N)/C(C#N)=C(\N)Sc1ccccc1N` [U0126] was tested, and the “Bcl-2 expression induced by IM in NSCs” value (Bcl-2; agent added to IM-treated NSCs) was “effectively blocked”, the “cell viability in LPS-treated NSCs with IM” value (LPS-treated NSCs [2]; after added treatment with the agent) was “dramatically decreased” and the “apoptotic activities (caspase 8, caspase 3 and TUNEL assays) in LPS- and IM-treated NSCs” value (LPS-treated NSCs [3]; agent added to LPS- and IM-treated NSCs, U0126 40 μM) was “significantly enhanced”. The “level of IL-1β in LPS-treated NSCs with IM” value (LPS-treated NSCs [4]; [7]) was “significantly increased”, the “level of IL-6 in LPS-treated NSCs with IM” value (LPS-treated NSCs [4]; [7]) was “significantly increased” and the “level of TNF-α in LPS-treated NSCs with IM” value (LPS-treated NSCs [4]; [7]) was “significantly increased”.
